Results: patent US6541505B1, “Substituted (aminoiminomethyl or aminomethyl) benzoheteroaryl compounds” (Aventis Pharmaceuticals Inc., priority 1998, dated 2003)
Counter-ions that a name gives are not always drawn.

SMILES | melting point
CN(C)CCCOc1ccc(-c2ccc(C(=O)NCCc3ccc4[nH]cc(C(=N)N)c4c3)cc2)cn1 (as salt: salt) [Example 1aaaaab, N-[2-(3-Carbamimidoyl-1H-indol-5-yl)ethyl]-4-[6-(3-dimethylaminopropoxy)pyridin-3-yl]benzamide] | 84 to 86 °C
N=C(N)c1c[nH]c2ccc(CCNC(=O)c3ccc(-c4ccncc4)cc3)cc12 [Example 1aaaaaaa, N-(2-[3-Carbamimidoylindol-5-yl]ethyl)-4-pyrid-4-ylbenzamide] | 113 to 116 °C
N=C(N)c1c[nH]c2ccc(CCNC(=O)c3ccc(-c4ccnc(OCCN5CCCC5)n4)cc3)cc12 (as salt: salt) [Example 1aaaaq, N-[2-(3-Carbamimidoyl-1H-indol-5-yl)ethyl]-4-[2-(2-pyrrolidin-1-yl-ethoxy)pyrimidin-4-yl]benzamide] | 104 to 105 °C
CN(CCO)c1nccc(-c2ccc(C(=O)NCCc3ccc4[nH]cc(C(=N)N)c4c3)cc2)n1 (as salt: salt) [Example 1aaav, N-[2-(3-Carbamimidoyl-1H-indol-5-yl)ethyl]-4-{2-[(2-hydroxy-ethyl)-N-methylamino]pyrimidin-4-yl}benzamide] | 97 to 100 °C
N=C(N)c1c[nH]c2ccc(CCNC(=O)c3ccc(-c4ccnc(NC5CC6CCC5C6)n4)cc3)cc12 (stereo not shown) (as salt: salt) [Example 1aaat, 4-[2-(Bicyclo[2.2.1]hept-2-ylamino)pyrimidin-4-yl]-N-[2-(3-carbamimidoyl-1H-indol-5-yl)ethyl]benzamide] | 152 to 155 °C
N=C(N)c1c[nH]c2ccc(CCNC(=O)c3ccc(-c4ccnc(NCCCCN5CCCCC5)n4)cc3)cc12 [Example 1aaan, N-[2-(3-Carbamimidoyl-1H-indol-5-yl)ethyl]-4-[2-(4-piperidin-1-ylbutylamino)pyrimidin-4-yl]benzamide] | 94 to 96 °C
CN(C)CCCCCCOc1nccc(-c2ccc(C(=O)NCCc3ccc4[nH]cc(C(=N)N)c4c3)cc2)n1 [Example 1aaaan, N-[2-(3-Carbamimidoyl-1H-indol-5-yl)ethyl]-4-[2-(6-dimethylaminohexyloxy)pyrimidin-4-yl]benzamide] | 82 to 84 °C
CCN(CC)CCCCNc1nccc(-c2ccc(C(=O)NCCc3ccc4[nH]cc(C(=N)N)c4c3)cc2)n1 [Example 1aaap, N-[2-(3-Carbamimidoyl-1H-indol-5-yl)ethyl]-4-[2-(4-diethylaminobutylamino)pyrimidin-4-yl]benzamide] | 73 to 76 °C
CN(C)CCOc1ccc(-c2ccc(C(=O)NCCc3ccc4[nH]cc(C(=N)N)c4c3)cc2)cn1 [Example 1aaaaaz, N-(2-[3-Carbamimidoylindol-5-yl]ethyl)-4-(6-[2-dimethylaminoethoxy]pyridin-3-yl)benzamide] | 57 to 59 °C
COCCOc1nccc(-c2ccc(C(=O)NCCc3ccc4[nH]cc(C(=N)N)c4c3)cc2)n1 (as salt: salt) [Example 1aaaal, N-[2-(3-Carbamimidoyl-1H-indol-5-yl)-ethyl]-4-[2-(2-methoxyethoxy)-pyrimidin-4-yl]benzamide] | 122 to 124 °C
N=C(N)c1c[nH]c2ccc(CCNC(=O)c3ccc(-c4ccnc(N5CCCC5C(N)=O)n4)cc3)cc12 (stereo not shown) (as salt: salt) [Example 1aaau, 1-(4-{4-[2-(3-Carbamimidoyl-1H-indol-5-yl)ethylcarbamoyl]phenyl}pyrimidin-2-yl)pyrrolidine-2-carboxylic acid amide] | 139 to 141 °C
CC(Oc1nccc(-c2ccc(C(=O)NCCc3ccc4[nH]cc(C(=N)N)c4c3)cc2)n1)C(N)=O (stereo not shown) [Example 1aaaam, N-[2-(3-Carbamimidoyl-1H-indol-5-yl)ethyl]-4-[2-(1-carbamoylethoxy)pyrimidin-4-yl]benzamide] | 159 to 161 °C
CN(C)CCOc1cccc(-c2ccc(C(=O)NCCc3ccc4[nH]cc(C(=N)N)c4c3)cc2)c1 [Example 1aaaas, 3′-(2-Dimethylaminoethoxy)biphenyl-4-carboxylic acid [2-(3-carbamimidoyl-1H-indol-5-yl)ethyl]amide] | 99 to 101 °C
N=C(N)c1c[nH]c2ccc(CCNC(=O)c3ccc(-c4ccnc(OCC(F)(F)F)n4)cc3)cc12 [Example 1aaag, N-[2-(3-Carbamimidoyl-1H-indol-5-yl)ethyl]-4-[2-(2,2,2-trifluoroethoxy)pyrimidin-4-yl]benzamide] | 194 to 195 °C
CN(CC(N)=O)c1nccc(-c2ccc(C(=O)NCCc3ccc4[nH]cc(C(=N)N)c4c3)cc2)n1 (as salt: salt) [Example 1aaak, N-[2-(3-Carbamimidoyl-1H-indol-5-yl)-ethyl]-4-[2-(carbamoylmethyl-N-methylamino)-pyrimidin-4-yl]benzamide] | 96 to 98 °C
N=C(N)c1c[nH]c2ccc(CCNC(=O)c3ccc(-c4ccnc(N5CCCC5)n4)cc3)cc12 [Example 1aaah, N-[2-(3-Carbamimidoyl-1H-indol-5-yl)-ethyl]-4-(2-pyrrolidin-1-ylpyrimidin-4-yl)benzamide] | 134 to 136 °C
N=C(N)c1c[nH]c2ccc(CCNC(=O)c3ccc(-c4ccnc(OC5CCCNC5=O)n4)cc3)cc12 (stereo not shown) [Example 1aaaap, N-[2-(3-Carbamimidoyl-1H-indol-5-yl)ethyl]-4-[2-(2-oxopiperidin-3-yloxy)pyrimidin-4-yl]benzamide] | 145 to 147 °C
N=C(N)c1c[nH]c2ccc(CCNC(=O)c3ccc(-c4ccnc(N5CCCC5CO)n4)cc3)cc12 (stereo not shown) (as salt: salt) [Example 1aaaj, N-[2-(3-Carbamimidoyl-1H-indol-5-yl)-ethyl]-4-[2-(2-hydroxymethylpyrrolidin-1-yl)-pyrimidin-4-yl]benzamide] | 117 to 120 °C
CN(C)CCOc1nccc(-c2ccc(C(=O)NCCc3ccc4[nH]cc(C(=N)N)c4c3)cc2)n1 [Example 1aaaar, N-[2-(3-Carbamimidoyl-1H-indol-5-yl)ethyl]-4-[2-(2-dimethylaminoethoxy)pyrimidin-4-yl]benzamide] | 106 to 107 °C
CN(C)CCCOc1ccccc1-c1ccc(C(=O)NCCc2ccc3[nH]cc(C(=N)N)c3c2)cc1 [Example 1aaaav, 2′-(3-Dimethylaminopropoxy)biphenyl-4-carboxylic acid [2-(3-carbamimidoyl-1H-indol-5-yl)ethyl]amide] | 76 to 78 °C
CN(C)CCNC(=O)Cn1cc(-c2ccc(C(=O)NCCc3ccc4[nH]cc(C(=N)N)c4c3)cc2)ccc1=O [Example 1aaaaad, N-[2-(3-Carbamimidoyl-1H-indol-5-yl)-ethyl]-4-{1-[(2-dimethylaminoethylcarbamoyl)methyl]-6-oxo-1,6-dihydropyridin-3-yl}benzamide] | 71 to 75 °C
N=C(N)c1c[nH]c2ccc(CCNC(=O)c3ccc(-c4ccnc(NCCCCCCN5CCOCC5)n4)cc3)cc12 [Example 1aaaq, N-[2-(3-Carbamimidoyl-1H-indol-5-yl)ethyl]-4-[2-(6-morpholin-4-ylhexylamino)pyrimidin-4-yl]benzamide] | 129 to 130 °C
CN(C)CCCOc1cccc(-c2ccc(C(=O)NCCc3ccc4[nH]cc(C(=N)N)c4c3)cc2)c1 [Example 1aaaaw, 3′-(3-Dimethylaminopropoxy)biphenyl-4-carboxylic acid [2-(3-carbamimidoyl-1H-indol-5-yl)ethyl]amide] | 84 to 86 °C

Results, then the compound that gave them:

melting point | SMILES
> 250 °C | COc1ccc(-c2ccc(C(=O)NCCc3ccc4[nH]cc(C(=N)N)c4c3)cc2)cc1OC (as salt: salt) [Example 1o, 3′,4′-Dimethoxybiphenyl-4-carboxylic acid (2-[3-carbamimidoylindol-5-yl]ethyl)amide]
191 to 194 °C | N=C(N)c1c[nH]c2ccc(CCNC(=O)c3ccc(-n4ccnc4)cc3)cc12 [Example 1g, N-(2-[3-Carbamimidoylindol-5-yl]ethyl)-4-imidazol-1-ylbenzamide]
244 to 245 °C | N=C(N)c1c[nH]c2ccc(CCNC(=O)c3ccc(-c4ccc(=O)n(CC(N)=O)c4)cc3)cc12 [Example 1aq, N-(2-[3-Carbamimidoylindol-5-yl]ethyl)-4-(1-carbamoylmethyl-6-oxo-1,6-dihydropyridin-3-yl)benzamide]
94 to 97 °C | CN(C)CCn1cc(-c2ccc(C(=O)NCCc3ccc4[nH]cc(C(=N)N)c4c3)cc2)ccc1=O [Example 1ap, N-(2-[3-Carbamimidoylindol-5-yl]ethyl)-4-(1-[2-dimethylaminoethyl]-6-oxo-1,6-dihydropyridin-3-yl)benzamide]
235 to 236 °C | N=C(N)c1c[nH]c2ccc(CCNC(=O)c3ccc(-n4cccn4)nc3)cc12 [Example 1ac, N-(2-[3-Carbamimidoylindol-5-yl]ethyl)-6-pyrazol-1-ylnicotinamide]
237 to 238 °C | COc1ccc(-c2ccc(C(=O)NCCc3ccc4c(c3)c(C(=N)N)cn4C)cc2)cn1 [Example 1ad, N-(2-[3-Carbamimidoyl-1-methylindol-5-yl]ethyl)-4-(6-methoxypyrid-3-yl)benzamide]
196 to 199 °C | N=C(N)c1c[nH]c2ccc(CCNC(=O)c3ccc(-n4cncn4)nc3)cc12 [Example 1aa, N-(2-[3-Carbamimidoylindol-5-yl]ethyl)-6-(1,2,4)triazol-1-ylnicotinamide]
198 to 200 °C | N=C(N)c1c[nH]c2ccc(CCNC(=O)c3ccc(-c4ccccn4)s3)cc12 [Example 1c, 5-(Pyrid-2-yl)-thiophene-2-carboxylic acid 2-(3-carbamimidoyl-5-indolyl)ethyl amide]
52 to 54 °C | N=C(N)c1c[nH]c2ccc(CCNC(=O)c3ccc(-c4cnc[nH]4)cc3)cc12 [Example 1h, N-(2-[3-Carbamimidoylindol-5-yl]ethyl)-4-(3H-imidazol-4-yl)benzamide]
152 to 156 °C | N=C(N)c1c[nH]c2ccc(CCNC(=O)c3ccc(-c4ccc(=O)[nH]c4)cc3)cc12 [Example 1v, N-(2-[3-carbamimidoyl-1H-indol-5-yl]ethyl)-4-(6-oxo-1,6-dihydro-pyrid-3-yl)benzamide]
102 to 105 °C | N=C(N)c1c[nH]c2ccc(CCNC(=O)c3ccc(NCCO)nc3)cc12 [Example 1z, N-(2-[3-Carbamimidoylindol-5-yl]ethyl)-6-(2-hydroxyethylamino)nicotinamide]
